A short description of test [1]: Induction of strand scission activity in DNA assessed as ratio of 2.5 uM drug-induced to bleomycin-induced relaxation of supercoiled DNA.
A short description of test [2]: Induction of strand scission activity in DNA assessed as relaxation of supercoiled DNA at 2.5 ug/ml. On the set-up: scale not given: the % may be the effect or the level left.
Test [3] is described as follows: Cytotoxicity against human 9KB cells. The class given is functional, cell-based.
A short description of test [4]: Induction of strand scission activity in DNA assessed as ratio of 25 uM drug-induced to bleomycin-induced relaxation of supercoiled DNA.
Test [5] in a line: Induction of strand scission activity in DNA assessed as relaxation of supercoiled DNA at 25 ug/ml. On the set-up: scale not given: the % may be the effect or the level left.

Each structure is given as a SMILES string. Values after ≈ are worked out from the molar mass of the structure shown. Active and inactive are the calls of the source. The calls are words filed in the database; no cut-off is given here.

Results on five molecules are retold here after ChEMBL document CHEMBL1158664, “New compounds with DNA strand-scission activity from the combined leaf and stem of Uvaria hamiltonii” (J Nat Prod, 1998).

One may read the IC50 as the midpoint of a concentration-inhibition curve.

On to `COc1cc2c(c(OC)c1OC)C(=O)/C(=C/c1ccc(O)c(O)c1)O2`, for which the results for the Activity in test [1] and in test [2] were 10 and 83%, respectively. The molecule further came in with an IC50 in test [3] of more than 20 µg/mL.

With `COc1cc2c(c(OC)c1OC)C(=O)CC(c1ccc(O)c(O)c1)O2` (racemic) [HAMILTONE B], the figures for the Activity in test [4] and in test [5] were 1 and 76%, respectively. Moreover, the 50% inhibitory concentration (IC50) in test [3] is more than 20 µg/mL.

Regarding `COc1cc(O)c(C(=O)/C=C/c2ccc(O)c(O)c2)c(OC)c1OC` [HAMILCONE], the values for the Activity in test [4] and in test [5] were 0.6 and 47%, respectively. The molecule also gave an IC50 in test [3] of 8 µg/mL (≈ 23.1 µM).

Regarding `COc1ccc([C@@H]2CC(=O)c3c(cc(OC)c(O)c3OC)O2)cc1` [HAMILTONE A], the Activity is 1.1 in test [4] and 88% in test [5]. Further, the IC50 in test [3] is more than 20 µg/mL.

For the molecule `O=C(OC[C@@]12C=C[C@@H](OC(=O)c3ccccc3)[C@@H](O)[C@H]1Cc1cc(O)ccc1O2)c1ccccc1` [HEMILXANTHENE], the outcome in test [4] and in test [5] was inactive. In addition, 10 µg/mL (≈ 21.2 µM) corresponded to half-maximal inhibition in test [3] (IC50).
